Assay results reported in patent US8592446B2, “[1,10]-phenanthroline derivatives for the treatment of neurodegenerative or haematological diseases” (Noscira, S.A., priority 2007, dated 2013).
Read-outs that look alike come from different tables or passages of the source.

Key:
[1] = system: SH-SY5Y human neuroblastoma cells; test: Protection against hydrogen peroxide-induced cell death (LDH); assay type: cell-based; conditions: compound 1 h before H2O2 100 μM, 24 h
Method: The aim of this assay is to determine the neuroprotective effect of the compounds of formula (I), when human neuroblastoma cells are exposed to oxidative stress induced by hydrogen peroxide, which is highly deleterious to the cell and its accumulation causes oxidation of cellular targets such as DNA, proteins, and lipids leading to mutagenesis and cell death.
SH-SY5Y human neuroblastoma cells are seeded into 96-well culture plate at a density of 10^4 cells/well. Cells are exposed to different concentrations of the compound one hour before the treatment with H2O2 100 μM during 24 h. 5 mM N-acetylcysteine (NAC), a known anti-oxidant agent was used as a positive control, and preincubated 1 hour before the treatment with H2O2. After 24 h, the medium is removed and cells attached to the bottom of the well are lysed by adding 50 μl of Triton X-100 1% in Krebs-Hepes during 5 minutes at room temperature. For LDH release quantification, Roche cytotoxicity detection kit (Cat. No. 11 644 793 001) was used.

[2] = system: Aβ (1-40) secretion by CHO7W cells (stably transfected with human APP751 wt cDNA); test: Inhibition of Aβ(1-40) secretion (ELISA, cellular supernatants); assay type: cell-based; conditions: Aβ 1-40 ELISA
Description: To quantitate Aβ secretion ELISA-based method was used. The assay consists in detection of antigen by selective monoclonal anti-Aβ-antibodies at two different epitopes forming a “Sandwich-complex”, that is detected by colorimetric measure due to the binding of a secondary antibody conjugated with peroxidase that catalyses the conversion of a substrate or chromogen, TMB, into a coloured product, directly proportional to the peptide quantity in the sample. The Aβ production has been analyzed by ELISA, using a colorimetric commercial kit: Immunoassay Kit Human β Amyloid 1-40 (Biosource).
Aβ (1-40) were quantified from cellular supernatants. An APP-transfected cell line has been employed for the experiments: CHO7W (stably transfected with human APP751 wt cDNA). The cells were grown in a culture medium consisting of DMEM supplemented with 2% Fetal bovine serum, 1% penicillin-streptomycin, 1% L-glutamine and 200 μg/ml G418. Cells are seeded in 96-well culture microplate, at 5000 cells/well and treatment with different compounds at different concentrations is performed 24 hour after seeding.
OM99-2 (H-5108, Bachem), a BACE inhibitor, was used as Aβ secretion reduction positive control in all the Aβ secretion studies. The cells were treated with this compound at 3 μM concentration, culture media were collected at 24 hours.

[3] = Screening pharmacokinetic study, plasma and brain (LC-MS/MS); assay type: in vivo, mice (C57BL6/J); conditions: mice; for Kp / bioavailability / Tmax / half-life / AUC / Cmax: male, C57BL6/J, mouse; for Kp: brain and plasma
Method: The objective of this study is to evaluate the oral bioavailability and the plasmatic and brain pharmacokinetic parameters after oral and intravenous administration, thus determining if compounds of formula (I) are able to cross the blood brain barrier (BBB). […] Each compound was solved in appropriate excipients. In the case of oral administration, compound was administered by means of an oral gavage coupled to a syringe. In the intravenous administration animals, the test item was administered by a single injection with a syringe coupled to a 30 G needle.
Two animals were sacrificed (according to internal SOPs and following animal handling and welfare guidelines) at each selected extraction times (i.e. 30 min, 1 h, 2 h, 4 h, 6 h, 8 h and 24 hours after administration), and from each animal, both brain and blood samples were obtained. Plasma was extracted by centrifugation of the blood samples. Each sample time represents two male mice from which samples were obtained.
The method for the analysis of plasma and brain samples involved isolation of the analyte from the biological matrix by protein precipitation or solid-phase extraction followed by analysis using LC-MS/MS. Limits of quantification for these compounds were in the order of 2-10 ng/mL. The software Winnonlin professional version 5.2 was used for the calculation of pharmacokinetic parameters.
In the following tables, the abbreviations have the meaning indicated below: • AUC=Area under the curve • T1/2=Half-life • Tmax=the time after administration of a drug when the maximum plasma concentration is reached; when the rate of absorption equals the rate of elimination • Cmax=maximum plasma concentration of the drug • V. Adm. and Vol. Adm.=volume of administration

[4] = Chelating ability with Fe (III) (absorbance spectra); assay type: physicochemical; conditions: PBS 10 mM, pH 7.4, ligand and Fe(III) 200 μM, FIG. 1
Method: FIG. 1 is an absorbance spectrum of compounds 4, 7, 8 and 10 in absence and presence of Fe(III). PBS 10 mM, pH 7.4. Concentration of ligand and Fe(III), 200 μM.
Only one line is observed, as the spectra are overlapping (see FIG. 1).

[5] = Chelating ability with Cu (II) (absorbance spectra); assay type: physicochemical; conditions: for Ability to complex Cu (II) (spectrum of mixture vs sum of individual spectra): 200 μM, PBS 10 mM, pH 7.4, FIG. 6
Method: FIG. 6 depicts the absorbance spectra of the mixture of Cu (II) and each of the quelating ligands (Compound 4, Compound 7, Compound 8). Concentration of Cu(II) and all compounds 200 μM, PBS 10 mM, pH 7.4.
FIG. 7 is the absorbance spectra of the complex Cu(II)-Compound 10. Concentration 200 μM, PBS 10 mM, pH 7.4.
Therefore, it may be observed that the compounds of formula (I) have a high affinity to Fe (II) in comparison to the rest of metalic ions tested.

[6] = iv, brain AUC relative to plasma AUC, intravenous route, group 1-2 mg/kg, read-out: % AUC
[7] = iv, brain Cmax relative to plasma Cmax, intravenous route, group 1-2 mg/kg, read-out: % Cmax
[8] = po, 20 mg/kg, brain AUC relative to plasma AUC, 20 mg/kg oral route, read-out: % AUC
[9] = po, 20 mg/kg, brain Cmax relative to plasma Cmax, 20 mg/kg oral route, read-out: % Cmax
[10] = po, 200 mg/kg, brain AUC relative to plasma AUC, 200 mg/kg oral route, read-out: % AUC
[11] = po, 200 mg/kg, brain Cmax relative to plasma Cmax, 200 mg/kg oral route, read-out: % Cmax
[12] = plasma, 20 mg/kg oral route (low dose)
[13] = plasma, 200 mg/kg oral route (high dose)
[14] = intravenous route, group 1-2 mg/kg (Compound 4, 8: 1.00; 7: 1.20; 10: 2.00 mg/Kg), brain
[15] = intravenous route, group 1-2 mg/kg (Compound 4, 8: 1.00; 7: 1.20; 10: 2.00 mg/Kg), plasma
[16] = Cu (II) complex, pH 7.4, expecting time 2 h

| SMILES | Inhibition secretion beta-amyloid (minimum concentration) [2] [mM] | Kp [3, 6] | Kp [3, 7] | Kp [3, 8] | Kp [3, 9] | bioavailability [3, 12] [%] | Tmax ([3]; 20 mg/kg oral route, brain) [min] | AUC ([3]; 20 mg/kg oral route, plasma) [ng·h/mL] | Cmax ([3]; 20 mg/kg oral route, plasma) [ng/mL] | Tmax ([3]; 20 mg/kg oral route, plasma) [min] | half-life ([3]; 20 mg/kg oral route, plasma) [min] | Tmax [3, 14] [min] | half-life [3, 14] [min] | AUC [3, 15] [ng·h/mL] | Cmax [3, 15] [ng/mL] | Tmax [3, 15] [min] | half-life [3, 15] [min] | Cmax Brain ([3]; 20 mg/kg oral route, brain) [ng/g] | Cmax Brain [3, 14] [ng/g] | Ability to complex Fe (III) (change in absorbance spectra) [4] | also measured |
| --- | --- | --- | --- | --- | --- | --- | --- | --- | --- | --- | --- | --- | --- | --- | --- | --- | --- | --- | --- | --- | --- |
| CSc1cc(/C=N/O)nc2c1ccc1cccnc12 [Compound 4, 4-Methylsulfanyl-[1,10]phenanthroline-2-carbaldehyde oxime] | 0.05 | 1.27 | 1.33 | 2.76 | 0.742 | 1.01 | 15 | 7.24 | 20.8 | 15 | 18 | 15 | 23.4 | 36 | 78.7 | 15 | 13.2 | 15.40 | 104.40 | no change in the absorbance spectra | minimal effective concentration ([1]; Homo sapiens, SH-SY5Y, read-out: Protect. H2O2 (minimum concentration for which protection was determined)): 0.05 µM; Kp [3, 10]: 1.12; Kp [3, 11]: 1.5; bioavailability [3, 13]: 19.1%; half-life ([3]; 20 mg/kg oral route, brain): 39.6 min; Tmax ([3]; 200 mg/kg oral route, brain): 30 min; half-life ([3]; 200 mg/kg oral route, brain): 56.4 min; AUC ([3]; 200 mg/kg oral route, plasma): 1380 ng·h/mL; Cmax ([3]; 200 mg/kg oral route, plasma): 931 ng/mL; Tmax ([3]; 200 mg/kg oral route, plasma): 30 min; half-life ([3]; 200 mg/kg oral route, plasma): 55.2 min; Cmax Brain ([3]; 200 mg/kg oral route, brain): 1394.40 ng/g; Ability to complex Cu (II) (spectrum of mixture vs sum of individual spectra) [5]: none of the ligands are able to complex the Cu (II) |
| COCCOc1cc(/C=N/O)nc2c1ccc1cccnc12 [Compound 8, 4-(2-Methoxy-ethoxy)-[1,10]phenanthroline-2-carbaldehyde oxime] | 1 | 0.0439 | 0.0524 | 0.0418 | 0.0621 | 6.67 | 15 | 325 | 396 | 15 | 234 | 15 | 10.8 | 244 | 690 | 15 | 66.6 | 24.60 | 36.10 | no change in the absorbance spectra | Protect. H2O2 (minimum concentration for which protection was determined) [1]: 50 nM; half-life ([3]; 20 mg/kg oral route, brain): 108 min; Ability to complex Cu (II) (spectrum of mixture vs sum of individual spectra) [5]: none of the ligands are able to complex the Cu (II) |
| CCN(CC)CCOc1cc(/C=N/O)nc2c1ccc1cccnc12 [Compound 10, 4-(2-Diethylamino-ethoxy)-[1,10]phenanthroline-2-carbaldehyde oxime] | 1 | 0.229 | 0.137 | 0.119 | 0.0876 | 12.5 | 60 | 184 | 149 | 60 | 240 | 4.8 | 156 | 148 | 136 | 4.8 | 486 | 13.07 | 18.7 | no change in the absorbance spectra | Protect. H2O2 (minimum concentration for which protection was determined) [1]: 50 nM; Kp [3, 10]: 8.32; Kp [3, 11]: 1.96; bioavailability [3, 13]: 77.6%; Tmax ([3]; 200 mg/kg oral route, brain): 120 min; AUC ([3]; 200 mg/kg oral route, plasma): 11500 ng·h/mL; Cmax ([3]; 200 mg/kg oral route, plasma): 3950 ng/mL; Tmax ([3]; 200 mg/kg oral route, plasma): 30 min; half-life ([3]; 200 mg/kg oral route, plasma): 227 min; Cmax Brain ([3]; 200 mg/kg oral route, brain): 7751.80 ng/g; Formation constant ([5]; Cu (II) complex 1:1 (ML), pH 7.4, expecting time 2 h): 4.4 ± 0.6 · 10^6 l/mol; Dissociation grade [5, 16]: 3.8 ± 0.4; Stoichiometry [5, 16]: 1:1 (ML); ε approx. [5, 16]: ~400 L/mol/cm |
